biological target: T1, JNK1α1 (Homo sapiens, UniProt P45983); test: Coupled spectrophotometric (PK/LDH) JNK1α1 assay: % inhibition and Ki determination; assay type: biochemical; conditions: JNK-1
T1 construct: catalytic domain containing amino acids 1-364 and N-terminal hexahistidine tag; hexahistidine (His6) (N); made in house; host or cells: E. coli BL21 (DE3)
Experimental: % Inhibition and Ki Determination
A coupled spectrophotometric assay, coupling JNK1α1 activity to the oxidation of β-NADH to NAD+ through the action of pyruvate kinase (PK) and lactic dehydrogenase (LDH), was used to determine the potency (percent inhibition at 1 or 10 μM or Ki) of compounds against JNK1α1 (Genbank Accession Number: L26318). […] The reaction was monitored by following the decrease in absorbance at 340 nm. The initial reaction rate was determined by the slope of the change in absorbance. To calculate percent inhibition the rate of the reaction in the presence of 1 or 10 μM compound was compared to the rate of the reaction with only DMSO multiplied by 100 percent. Note, the background rate of the above reaction in the presence of 10 μM PHA-00738186 was subtracted from all rates. […] Y=(−X+Eo−(Ki*(1+A/Km))+((X−Eo+(Ki*(1+A/Km)))^2+4*Eo*(Ki*(1+A/Km)))^0.5)*(Vm*A/(Km+A)/(2*Eo)) Formula: • Parameters: Eo, Ki, A, Km, Vo • Y is initial reaction velocity; • X is inhibitor concentration; • A is [ATP]; • Ki is inhibition constant; • Vm is Vmax; • Eo is total (initial) enzyme concentration; • Km is ATP Km;
The compounds were prepared in 100% DMSO at a 40× concentration. For percent inhibition experiments this would be 400 or 40 μM for 10 and 1 μM final concentration, respectively. For the Ki determination 3× serial dilutions were made starting at 4 mM (100 μM at 1×) in DMSO. A total of 11 concentrations were used for the analysis. The compounds were added to the reaction plate first. Next, a solution containing the HEPES, MgCl2, DTT, peptide substrate, NADH, PEP, PK/LDH enzyme, and JNK1α1—364nHis enzyme was added to the assay plate. The plate was incubated at room temperature for 15 minutes. Then the plate was warmed to 30° C. for 5 minutes. The reaction was initiated with the addition of ATP. The reaction was run in a plate reader at 30° C. for 20 minutes with absorbance readings made about every 10 seconds.
The column with “#” heading refers to compound number as exemplified in the Examples section. The column with “Ki” heading refers to Ki (in nM). The column with “% Inhibition” heading refers to percent inhibition of JNK-1 at 1 μM or 10 μM (in %) unless otherwise stated. ND refers to no data was taken.

T1 sequence (P45983 1-364): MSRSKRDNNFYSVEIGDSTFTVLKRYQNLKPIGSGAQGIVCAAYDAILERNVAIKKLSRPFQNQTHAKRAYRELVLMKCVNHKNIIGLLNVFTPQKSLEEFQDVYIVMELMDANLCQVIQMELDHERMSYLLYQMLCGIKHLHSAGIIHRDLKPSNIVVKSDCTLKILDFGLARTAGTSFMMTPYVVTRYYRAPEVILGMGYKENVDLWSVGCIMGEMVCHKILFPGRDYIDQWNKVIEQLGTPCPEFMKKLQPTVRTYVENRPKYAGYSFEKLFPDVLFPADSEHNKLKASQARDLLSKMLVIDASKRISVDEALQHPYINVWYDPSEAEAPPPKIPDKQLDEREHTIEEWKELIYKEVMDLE

| Ki | SMILES |
| --- | --- |
| 456 nM | CC(C)NC(=O)c1ccc2cnc(N[C@H]3CC[C@H](O)CC3)nc2c1 [Example 64, 2-[(trans-4-hydroxycyclohexyl)amino]-N-isopropylquinazoline-7-carboxamide] |
| 292 nM | O=C(NC1CCS(=O)(=O)C1)c1ccc2cnc(N[C@H]3CC[C@H](O)CC3)nc2c1 (stereo partly drawn) [Example 79, N-(1,1-dioxidotetrahydro-3-thienyl)-2-[(trans-4-hydroxycyclohexyl)amino]quinazoline-7-carboxamide] |
| 63 nM | O=C(NCc1ccccc1)c1ccc2cnc(N[C@H]3CC[C@H](O)CC3)nc2c1 [Example 81, N-benzyl-2-[(trans-4-hydroxycyclohexyl)amino]quinazoline-7-carboxamide] |
| 235 nM | O=C(NCCc1ccccc1)c1ccc2cnc(N[C@H]3CC[C@H](O)CC3)nc2c1 [Example 82, 2-[(trans-4-hydroxycyclohexyl)amino]-N-(2-phenylethyl)quinazoline-7-carboxamide] |
| 247 nM | CC(C)NC(=O)c1ccc2cnc(N[C@H]3CC[C@H](O)CC3)nc2c1 [Example 83, 2-[(trans-4-hydroxycyclohexyl)amino]-N-isopropylquinazoline-7-carboxamide] |
| 3010 nM | O=C(c1ccc2cnc(N[C@H]3CC[C@H](O)CC3)nc2c1)N1CCC[C@H]1CO [Example 85, trans-4-[(7-{[(2S)-2-(hydroxymethyl)pyrrolidin-1-yl]carbonyl}quinazolin-2-yl)amino]cyclohexanol] |
| 220 nM | O=C(NCc1ccccn1)c1ccc2cnc(N[C@H]3CC[C@H](O)CC3)nc2c1 [Example 86, 2-[(trans-4-hydroxycyclohexyl)amino]-N-(pyridin-2-ylmethyl)quinazoline-7-carboxamide] |
| 60 nM | C[C@@H](NC(=O)c1ccc2cnc(N[C@H]3CC[C@H](O)CC3)nc2c1)c1ccccc1 [Example 87, 2-[(trans-4-hydroxycyclohexyl)amino]-N-[(1R)-1-phenylethyl]quinazoline-7-carboxamide] |
| 114 nM | O=C(NCc1ccc(F)cc1)c1ccc2cnc(N[C@H]3CC[C@H](O)CC3)nc2c1 [Example 88, N-(4-fluorobenzyl)-2-[(trans-4-hydroxycyclohexyl)amino]quinazoline-7-carboxamide] |
| 269 nM | CC(C)(CN1CCOCC1)NC(=O)c1ccc2cnc(N[C@H]3CC[C@H](O)CC3)nc2c1 [Example 89, N-(1,1-dimethyl-2-morpholin-4-ylethyl)-2-[(trans-4-hydroxycyclohexyl)amino]quinazoline-7-carboxamide] |
| 643 nM | CC(=O)N1CCC(CNC(=O)c2ccc3cnc(N[C@H]4CC[C@H](O)CC4)nc3c2)CC1 [Example 91, N-[(1-acetylpiperidin-4-yl)methyl]-2-[(trans-4-hydroxycyclohexyl)amino]quinazoline-7-carboxamide] |
| 379 nM | O=C(NCC1CCCOC1)c1ccc2cnc(N[C@H]3CC[C@H](O)CC3)nc2c1 (stereo partly drawn) [Example 92, 2-[(trans-4-hydroxycyclohexyl)amino]-N-(tetrahydro-2H-pyran-3-ylmethyl)quinazoline-7-carboxamide] |
| 31 nM | CC[C@@H](NC(=O)c1ccc2cnc(N[C@H]3CC[C@H](O)CC3)nc2c1)c1ccccc1 [Example 93, 2-[(trans-4-hydroxycyclohexyl)amino]-N-[(1R)-1-phenylpropyl]quinazoline-7-carboxamide] |
| 148 nM | O=C(NC1CCc2ccccc21)c1ccc2cnc(N[C@H]3CC[C@H](O)CC3)nc2c1 (stereo partly drawn) [Example 94, N-(2,3-dihydro-1H-inden-1-yl)-2-[(trans-4-hydroxycyclohexyl)amino]quinazoline-7-carboxamide] |
| 74 nM | O=C(N[C@H](CO)c1ccccc1)c1ccc2cnc(N[C@H]3CC[C@H](O)CC3)nc2c1 [Example 95, 2-[(trans-4-hydroxycyclohexyl)amino]-N-[(1S)-2-hydroxy-1-phenylethyl]quinazoline-7-carboxamide] |

— patent US7998978B2 (Pfizer Inc., priority 2006, dated 2011)
